Assay: PORTICO PK substudy: steady-state plasma macitentan and ACT-132577
Assay type: in vivo, human
Method: It was planned to enroll at least 20 patients who were on steady-state treatment with macitentan (i.e., at least 4 weeks) into the PK substudy. The substudy was conducted in consenting patients from all centers across all regions who agreed to participate. The substudy consisted of the following periods:
PK assessments period: PK assessments were to be performed after OL study treatment had been taken for at least 4 weeks. The substudy comprised two visits (Day 1: Enrollment and Day 2: Conclusion). See, FIG. 2. Subject eligibility was first checked on Day 1 of the PK substudy prior to the start of assessments.
PK substudy: On Day 1 of the PK substudy, the study treatment was required to be taken directly after the pre-dose blood sample. On Day 2 of the PK substudy, study treatment was required to be taken after the collection of the last PK blood sample (24 hours post Day 1 dose).
F3. Pharmacokinetic Endpoints for Macitentan and its Active Metabolite ACT-132577 • The area under the plasma concentration-time curve during one dosing interval (AUCt). • Maximum plasma concentration (Cmax) during a dosing interval. • The time to reach maximum plasma concentration (tmax) during a dosing interval.
(i) Timing for sampling: For the PK assessment, blood samples were drawn at the following time points: • PK substudy Day 1: Immediately before study treatment administration in the morning (pre-dose) and 1 h, 3 h, 5 h, 6 h, 7 h, 8 h, 9 h, 10 h, 12 h, and 14 h post-dose. • PK substudy Day 2: 24 h post-dose.
(iii) Bioanalysis: A validated liquid chromatography coupled to mass spectrometry method was used for determining the concentrations of macitentan and its metabolite ACT-132577 in plasma. The limit of quantification (LOQ) for both analytes was 1 ng/mL.
The measured individual plasma concentrations of macitentan and its metabolite ACT-132577 were used to directly obtain Cmax and tmax. AUCT was calculated according to the linear trapezoidal rule using the measured concentration-time values above the LOQ during one dosing interval. The PK variables were calculated on the basis of the real (actual) blood sampling time points. For mean value calculations, all values below the LOQ (below the limit of quantification (BLQ) values) were set to zero if ≤50% of the values at a given time point were BLQ. If >50% of the values at a given time point were BLQ, no mean value was calculated. Mean concentration-time profiles were generated using these criteria. The individual and mean plasma concentration-time profiles were plotted on a linear scale. The derived PK variables for macitentan and ACT-132577 (AUCT, Cmax, tmax) are listed by patient. Plasma concentrations per time point were summarized using arithmetic mean, minimum, median, maximum, standard deviation (SD), standard error (SE), and two-sided 95% confidence interval of the mean. […] (*For tmax the geometric mean and its 95% confidence interval were not calculated).

NS(=O)(=O)Nc1ncnc(OCCOc2ncc(Br)cn2)c1-c1ccc(Br)cc1 [ACT-132577, aprocitentan]
Plasma exposure in PoPH patients compared with other forms of PAH / other macitentan studies: consistent between PoPH patients and patients with other forms of PAH
Trough plasma concentration, mean±SD (OL macitentan 10 mg o.d. at least 4 weeks, PoPH patients, n=8): 737.4 ± 190.0 ng/mL
Cmax (human, plasma, oral, macitentan 10 mg o.d., PoPH patients, PKS 10 patients, read-out: Cmax, geometric mean (95% confidence interval)): 870 ng/mL
Tmax (human, plasma, oral, macitentan 10 mg o.d., PoPH patients, PKS 10 patients, read-out: tmax, median (range)): 6.5 h
AUCT, geometric mean (95% confidence interval) (one dosing interval, macitentan 10 mg o.d., PoPH patients): 18100.0 ng·h/mL

— US20220257595A1, “MACITENTAN FOR USE IN TREATING PORTOPULMONARY HYPERTENSION” (ACTELION PHARMACEUTICALS LTD, priority 2019, published 2022)
